Results on 13 compounds are retold here after US8604217B2, “Compound, a process for its preparation, a pharmaceutical composition, use of a compound, a method for modulating or regulating serine/threonine kinases and a serine/threonine kinases modulating agent” (Selvita S.A., priority 2009, dated 2013).

pIC50: −log10 of the molar value. Read-outs that look alike come from different tables or passages of the source.

Experiment [1] concerns human myelomonocytic, biphenotypic leukemia MV4-11 cells. In words: Growth inhibition test (MTS) on MV4-11 cells. Conditions: Homo sapiens, MV4-11, 72 hours, read-out: MV-4-11 ED50. Type of experiment: cell-based. Summed up: MV4-
Experiment [2] concerns human erytroblast leukemia HEL-92.1.7 cells. Put plainly: Growth inhibition test (MTS) on HEL-92.1.7 cells. To be noted: 72 hours, read-out: HEL92 ED50. The format is cell-based. The protocol:
(§1) Ten thousand cells of human erytroblast leukemia HEL-92.1.7 were inoculated into each well of a 96-well microplate (manufactured by Corning Corp.) using RPMI 1640 medium (culture medium) containing 10% fetal calf serum (FCS). Next day, a dimethyl sulfoxide (DMSO) solution of each test compound prepared in a concentration of 10 mmol/L was further diluted with culture medium to the desired concentrations (0.1, 0.5, 1, 2.5, 5 and 10 micromol/L), and the diluted solution was added to each well. The individual wells were further cultured in 5% carbon dioxide at 37° C. for 72 hours. After completion of the culture, 10 μl MTS (3-(4,5-Dimethyl-2-thiazolyl)-5-(carboxymethoxyphenyl)-2-(4-sulfophenyl)-2H-tetrazolium, inner salt assay (CellTiter96® AQueous One Solution Cell Proliferation Assay, Promega) was added to each well, and culturing was performed in 5% carbon dioxide at 37° C. for 2 hours. Using a microplate spectrophotometer (Synergy 2 multi-mode microplate reader (BioTek)), the absorbance of each well was measured at 490 nm. The value for cells not incorporated with a test compound was designated as 100%. By comparing these values with the absorbance difference obtained at the well in which each test compound was added, the cell viability (% viability) after treatment with the test compound was calculated.

The next experiment has as its target PIM-1 (Homo sapiens (Human), UniProt P11309). Put plainly: Luminometric kinase assay for PIM1 kinase (Kinase-Glo). The format is biochemical. Conditions: 1 μM ATP, 25 min at RT. In short, it runs like this:
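Kinase and substrate reacted in 8 mM MOPS/NaOH pH7.0, 0.2 mM EDTA, 2 mM MgCl2 with 1 μM ATP for 25 min at RT, compounds serially diluted from 1 μM. Remaining ATP read by Kinase-Glo luminescence; IC50 from variable-slope sigmoidal fit.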
(In general: Kinase-Glo measures the ATP left after a reaction by luminescence.)

Experiment [3] relates to human prostate adenocarcinoma PC3 cells. Put plainly: Growth inhibition test (MTS) on PC3 cells. To be noted: Homo sapiens, PC-3, 72 hours, read-out: PC-3 ED50. Type of experiment: cell-based.
Experiment [4] deals with human hepatoma HepG2 cells. Put plainly: Growth inhibition test (MTS) on HepG2 cells. Type of experiment: cell-based. To be noted: 72 hours, read-out: HepG2 ED50. Summed up:
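HepG2 cells in DMEM with 10% FCS were exposed for 72 h at 37 °C, 5% CO2, to 0.1, 0.5, 1, 2.5, 5 and 10 micromol/L compound. MTS was then added for 2 h and absorbance read at 490 nm. % viability was calculated relative to untreated cells set at 100%.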

For experiment [5], the system named is human breast adenocarcinoma MCF7 cells. Put plainly: Growth inhibition test (MTS) on MCF7 cells. Conditions: read-out: MCF-7 ED50; for pIC50: Homo sapiens, MCF7, 72 hours; for IC50: 72 hours. Type of experiment: cell-based. In short, it runs like this: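 MCF7 cells seeded in DMEM with 10% FCS, dosed next day at 0.1–10 micromol/L (diluted from 10 mmol/L DMSO stock) and cultured 72 h at 37° C, 5% CO2. MTS added for 2 h, absorbance read at 490 nm; % viability calculated relative to untreated cells as 100%.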

Experiment [6] deals with human chronic myelocytic leukemia K562 cells. In words: Growth inhibition test (MTS) on K562 cells. Type of experiment: cell-based. To be noted: 72 hours, read-out: K562 ED50. As for the experimental part: as §1, with “chronic myelocytic” for “erytroblast”, “K562” for “HEL-92.1.7”, “Iscove's MDM” for “RPMI 1640”
In experiment [7] the test system is human colorectal adenocarcinoma SW480 cells. Put plainly: Growth inhibition test (MTS) on SW480 cells. Type of experiment: cell-based. Conditions: read-out: SW480 ED50; for IC50: 72 hours. The protocol: as §1, with “Two” for “Ten”, “colorectal adenocarcinoma SW480” for “erytroblast leukemia HEL-92.1.7”, “Corp.), and” for “Corp.)”, “DMEM/Ham's F121:1” for “RPMI 1640”, “5%” for “10%”

Chain of PIM-1 (P11309 whole entry): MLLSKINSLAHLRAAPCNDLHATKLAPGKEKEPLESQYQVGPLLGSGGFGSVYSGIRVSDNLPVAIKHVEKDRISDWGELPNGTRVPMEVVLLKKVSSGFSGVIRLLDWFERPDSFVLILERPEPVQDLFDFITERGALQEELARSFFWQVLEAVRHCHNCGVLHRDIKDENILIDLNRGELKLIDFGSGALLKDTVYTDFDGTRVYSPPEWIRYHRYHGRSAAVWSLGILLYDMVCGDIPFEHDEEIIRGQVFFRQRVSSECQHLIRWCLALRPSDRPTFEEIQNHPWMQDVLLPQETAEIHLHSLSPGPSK

Consider `N[C@H]1CCCC[C@H]1Nc1nc2c(Br)c(Br)c(Br)c(Br)c2[nH]1` (relative stereo) [Compound 304cis, cis N1-(4,5,6,7-tetrabromo-1H-benzo[d]imidazol-2-yl)cyclohexane-1,2-diamine], for which the pIC50 was 6.48 in experiment [1]; 5.74 in experiment [2]; 8.16 at PIM-1; 5.83 in experiment [3]; 5.87 in experiment [4]; 6.15 in experiment [5].
Regarding `Brc1c(Br)c(Br)c2[nH]c(NCCN3CCCCC3)nc2c1Br` [Compound 13, 4,5,6,7-tetrabromo-N-(2-(piperidin-1-yl)ethyl)-1H-benzo[d]imidazol-2-amine], the IC50 in experiment [6] is 3.72 µM; in experiment [7], 1.08 µM; in experiment [5], 3.65 µM. Further, the figures for the pIC50 (on PIM-1; in experiment [3]; in experiment [4]) were 6.50, 5.41 and 5.60, respectively.
Turning to `Brc1c(Br)c(Br)c2[nH]c(NCCN3CCCC3)nc2c1Br` [Compound 14, 4,5,6,7-tetrabromo-N-(2-(pyrrolidin-1-yl)ethyl)-1H-benzo[d]imidazol-2-amine], the IC50 was 3.59 µM in experiment [6], 1.53 µM in experiment [7] and 7.76 µM in experiment [5]. For the same compound, the pIC50 at PIM-1 was 7.24; in experiment [3], 5.40; in experiment [4] it was 5.67.
On to `CN1CCN(c2nc3c(Br)c(Br)c(Br)c(Br)c3[nH]2)CC1` [Compound 21, 4,5,6,7-tetrabromo-2-(4-methylpiperazin-1-yl)-1H-benzo[d]imidazole], for which the IC50 is reported as 7.99 µM in experiment [6] and 5.98 µM in experiment [7]. For the same compound, the values for the pIC50 (on PIM-1; in experiment [4]) were 7.38 and 5.20, respectively.
For `Brc1c(Br)c(Br)c2[nH]c(NCCCn3ccnc3)nc2c1Br` [Compound 65, N-(3-(1H-imidazol-1-yl)propyl)-4,5,6,7-tetrabromo-1H-benzo[d]imidazol-2-amine], the pIC50 in experiment [1] was 5.46; in experiment [2] it was 5.08; on PIM-1 it was 7.64; in experiment [3], 5.13; in experiment [5], 5.09. For the same compound, the IC50 in experiment [7] came to 6.92 µM.
Turning to `Nc1ccccc1Nc1nc2c(Br)c(Br)c(Br)c(Br)c2[nH]1` [Compound 332, N1-(4,5,6,7-tetrabromo-1H-benzo[d]imidazol-2-yl)benzene-1,2-diamine], the pIC50 in experiment [1] was 5.49; in experiment [2], 5.50; at PIM-1 it was 7.79; in experiment [3] it was 5.12; in experiment [4], 5.18.
In the case of `Nc1cc(F)c(F)cc1Nc1nc2c(Br)c(Br)c(Br)c(Br)c2[nH]1` [Compound 333, N1-(4,5,6,7-tetrabromo-1H-benzo[d]imidazol-2-yl)-4,5-difluorobenzene-1,2-diamine], the pIC50 was 5.41 in experiment [1]; 5.49 in experiment [2]; 7.31 on PIM-1; 5.60 in experiment [3]; 5.34 in experiment [4]; 5.32 in experiment [5].
Turning to `NCc1cccc(CNc2nc3c(Br)c(Br)c(Br)c(Br)c3[nH]2)c1` [Compound 354, N-(3-(aminomethyl)benzyl)-4,5,6,7-tetrabromo-1H-benzo[d]imidazol-2-amine], the pIC50 in experiment [1] was 5.35; in experiment [2], 5.16; on PIM-1, 6.97; in experiment [3] it was 5.07; in experiment [4], 5.58; in experiment [5], 5.51.
Turning to `CNCCCN(Cc1ccccc1)c1nc2c(Br)c(Br)c(Br)c(Br)c2[nH]1` [Compound 372, N-benzyl-4,5,6,7-tetrabromo-N-(3-(methylamino)propyl)-1H-benzo[d]imidazol-2-amine], the pIC50 in experiment [1] is 5.78; in experiment [2], 5.40; on PIM-1, 7.34; in experiment [3], 5.62; in experiment [4] it was 5.88; in experiment [5] it was 5.60.
As for `CCOC(=O)N1CCN(c2nc3c(Br)c(Br)c(Br)c(Br)c3[nH]2)CC1` [Compound 376, ethyl 4-(4,5,6,7-tetrabromo-1H-benzo[d]imidazol-2-yl)piperazine-1-carboxylate], the pIC50 in experiment [1] is 5.29; in experiment [2], 5.10; in experiment [3] it was 5.18; in experiment [4], 5.03.
Take `CCOC(=O)N1CCN(c2nc3c(Br)c(Br)c(Br)c(Br)c3n2C(=O)OCC)CC1` [Compound 377, ethyl 2-(4-(ethoxycarbonyl)piperazin-1-yl)-4,5,6,7-tetrabromo-1H-benzo[d]imidazole-1-carboxylate]: the pIC50 in experiment [1] is 5.23; in experiment [2], 5.01; in experiment [3], 5.22; in experiment [4], 5.01.
On to `CN1CCN(C2CCN(c3nc4c(Br)c(Br)c(Br)c(Br)c4[nH]3)CC2)CC1` [Compound 385, 4,5,6,7-tetrabromo-2-(4-(4-methylpiperazin-1-yl)piperidin-1-yl)-1H-benzo[d]imidazole], for which the pIC50 was 5.34 in experiment [1]; 5.66 in experiment [2]; 7.34 at PIM-1; 5.16 in experiment [3]; 5.42 in experiment [4]; 5.24 in experiment [5].
On to `Cc1nc2ccccn2c1CN1CCN(c2nc3c(Br)c(Br)c(Br)c(Br)c3[nH]2)CC1` [Compound 414, 4,5,6,7-tetrabromo-2-(4-((2-methyl-1H-imidazo[1,2-a]pyridin-3-yl)methyl)piperazin-1-yl)-1H-benzo[d]imidazole], for which the pIC50 in experiment [1] is 5.52; in experiment [2], 5.15; in experiment [3], 5.05; in experiment [7] (Homo sapiens, SW480, 72 hours), 5.36; in experiment [5], 5.08.
